Tests used:
Assay type in all cases: cell-based, human
HAS3 = HAS3 expression by qRT-PCR in HSVSMC; conditions: SMILR knockdown
Procedure: (§1) For gene expression analysis, cDNA for mRNA analysis was obtained from total RNA using the Multiscribe Reverse Transcriptase (Life technologies, UK). qRT-PCR was performed using Power SYBR green (life technologies, UK) with custom PCR primers (Eurofins, MWG, Ebersberg, Germany) the specificity of these primers was confirmed by performing a melting curve and running their PCR produce on a gel (Table 1—primer sequences). Ubiquitin C (UBC) was selected as housekeeping gene due to its stability across all groups studied. Fold-changes were calculated using the 2^−ΔΔCt method (Livak and Schmittgen 2001—http://www.ncbi.nlm.nih.gov/pubmed/11846609; analysis of relative gene expression data using real-time quantitative PCR and the 2(-Delta Delta C(T)) method. Methods 2001;25;402-8). […] Following the 48 stimulation cells were RNA extracted as described earlier or fixed in 70% ethanol for EdU FACs analysis. EdU incorporation was visualized using Click-iT Alexa Fluor 594 according to the manufacturers protocol (Invitrogen).

SMILR = assay: RNA-FISH of SMILR transcripts in HSVSMC
Source text: Custom RNA-FISH tiled probe sets were generated to all exons of […] FISH utilises “branch tree” technology. Briefly, a target specific probe set, containing 40 oligo probes, hybridises to the target mRNA as 20 oligo pairs. Each oligo pair forms a required platform for assembly of the signal amplification structure (tree) through a series of sequential hybridisation steps. Each fully assembled structure, covers a space of 40-50 nt of the target RNA, and has the capacity for 400-fold signal amplification. Therefore, a typical RNA probe set (containing 20 oligo pairs) has the capacity to generate 8,000-fold signal amplification. Due to this technology the company confirms single-molecule RNA sensitivity, thus each fluorescent signal corresponds to an individual lncRNA molecule. Control SNORD3 and UBC were used as housekeepers to determine spatial location of LncRNA2 (Panomics, Affymetrix). RNA-FISH was performed according to manufacturer's instructions (ViewRNATM cell FISH) with minor modifications for both cell and tissue experiments. For cellular analysis […] were grown on 16mm coverslips to 80% confluency, washed in PBS and fixed in 4% paraformaldehyde supplemented with 1% glacial acetic acid. Following detergent QS permeablisation and 1:6000 protease digest coverslips were incubated with a combination of UBC and LncRNA 2 probe sets or UBC. […]

HAS1 = HAS1 expression by qRT-PCR in HSVSMC; conditions: SMILR knockdown
Procedure: as §1

HSVSMC proliferation = assay: EdU incorporation (proliferation) of HSVSMC stimulated with IL1α/PDGF
ZHX2 = ZHX2 expression by qRT-PCR in HSVSMC; conditions: SMILR knockdown
Procedure: as §1

HAS2 = HAS2 expression by qRT-PCR in HSVSMC; conditions: SMILR knockdown
Procedure: as §1

HAS2-AS1 = HAS2-AS1 expression by qRT-PCR in HSVSMC; conditions: SMILR knockdown
Procedure: as §1

SMILR (LncRNA 2) = assay: dsiRNA-mediated knockdown of SMILR in HSVSMC, qRT-PCR
Procedure: as §1

[1] = tested on: interferon pathway (OAS1, IRF7); assay: qRT-PCR of interferon response genes OAS1 and IRF7 after dsiRNA; conditions: dsiRNA off target effects
Procedure: (§2) For gene expression analysis, cDNA for mRNA analysis was obtained from total RNA using the Multiscribe Reverse Transcriptase (Life technologies, UK). qRT-PCR was performed using Power SYBR green (life technologies, UK) with custom PCR primers (Eurofins, MWG, Ebersberg, Germany) the specificity of these primers was confirmed by performing a melting curve and running their PCR produce on a gel (Table 1—primer sequences). Ubiquitin C (UBC) was selected as housekeeping gene due to its stability across all groups studied. Fold-changes were calculated using the 2^−ΔΔCt method (Livak and Schmittgen 2001—http://www.ncbi.nlm.nih.gov/pubmed/11846609; analysis of relative gene expression data using real-time quantitative PCR and the 2(-Delta Delta C(T)) method. Methods 2001;25;402-8).

[2] = tested on: LncRNA 2 (SMILR) expression; assay: MEKK1 and p38 inhibitor studies: LncRNA 2 (SMILR) expression by qRT-PCR in IL1α/PDGF-stimulated HSVSMC; conditions: 24 h; for LncRNA 2 expression in the presence of IL1 and PDGF: HSVSMC, 60 minute pre-treatment, 10, 15 and 20 μM AZD6244, 5, 10 and 20 uM SB 203580; for induction of SMILR expression in response to PDGF and IL1α: VSMC, 60 min pre-treatment, AZD6244 5, 10 or 15 μM, SB203580
Procedure: as §2, with “1-primer” for “1—primer”, “2^-ΔΔCt” for “2^−ΔΔCt”, “2001-http://www.ncbi.nlm.nih.gov/pubmed/11846609;” for “2001—http://www.ncbi.nlm.nih.gov/pubmed/11846609;”, “2001;25;402-8). For inhibitor studies, […] were plated at 1×10^5 cells in 6 well plates and quiesced for 48 h. […] Cells were then stimulated with either 0.2% media or a combination of IL1α and PDGF for 24 hours for RNA quantification or western blot analysis.” for “2001;25;402-8).”

| Molecule | HAS3 expression (HAS3) | SMILR transcripts (RNA-FISH) (SMILR) | HAS1 expression (HAS1) | VSMC proliferation reduced (EdU incorporation) (HSVSMC proliferation; SMILR knock down with dsiRNA, IL1/PDGF 48 h, vs Si Control) [%] | SMC proliferation following stimulation with IL1/PDGF (EdU incorporation) (HSVSMC proliferation; dsiRNA mediated knockdown of LncRNA 2) | ZHX2 gene expression (ZHX2) | HAS2 mRNA levels (HAS2) | HAS2 mRNA levels (HAS2; listed as SMILR siRNA) | HAS2-AS1 lncRNA expression (HAS2-AS1) | decrease in SMILR expression compared to dsiControl (SMILR (LncRNA 2); 25 nM dsiRNA, IL1α/PDGF 48 h) [%] | LncRNA 2 (SMILR) expression after dsiRNA transfection (SMILR (LncRNA 2); IL1/PDGF, qRT-PCR) | effect on the interferon pathway (response genes OAS1 and IRF7) [1] | LncRNA 2 expression in the presence of IL1 and PDGF [2] | induction of SMILR expression in response to PDGF and IL1α [2] |
| --- | --- | --- | --- | --- | --- | --- | --- | --- | --- | --- | --- | --- | --- | --- |
| DsiRNA SMILR: Double stranded dicer substrate siRNA targeting LncRNA 2 (SMILR); probably sense SEQ ID NO: 1, antisense SEQ ID NO: 2 (sense CCAUAAUUUACAUGGAUGUU; antisense UUCCAAACAUCCAUGUAAAUUAUGGAA; listed as RNA, chemistry not fully specified) | no effect | decrease | no effect | 56±15 | inhibited | no change | significantly inhibits | significantly altered | no change | 75±24 | significant decrease | No effect |  |  |
| Cn1cnc2c(F)c(Nc3ccc(Br)cc3Cl)c(C(=O)NOCCO)cc21 [AZD6244] |  |  |  |  |  |  |  |  |  |  |  |  | completely inhibited | prevented the induction |
| C[S+]([O-])c1ccc(-c2nc(-c3ccncc3)c(-c3ccc(F)cc3)[nH]2)cc1 (stereo not shown) [SB 203580] |  |  |  |  |  |  |  |  |  |  |  |  | completely inhibited | dose-dependent reduction |
